The record followed here is patent publication US4514420A, “Antifibrotic agent” (Takeda Chemical Industries, Ltd., priority 1982, dated 1985).

SMILES strings stand for the structures.

The test system of one data set is Collagen biosynthesis. The experiment in a line: Collagen biosynthesis inhibiting activity (collagen content of the uterus). It is filed as in vivo, rats of SD strain. Conditions: female SD rats; for Collagen content of uterus / Body weight of rats: groups of 3; for Collagen content of uterus: control 1.64 ± 0.3; for Body weight of rats: control 73 ± 6. As for the experimental part:
(2) Collagen biosynthesis inhibiting activity
Basically in accordance with the method of R. A. Salvador et al. [Arch. Biochem. Biophys. 174, 382 (1976)], 0.2 mg/kg of each test compound was intraperitoneally administered to rats of SD strain (.female., 3 weeks old) once daily for 6 consecutive days and the collagen content of the uterus was compared with the control value.
*Rats were used in groups of 3. Initial body weights = 41 ± 2 ~

Data set [1] concerns the target T1, Protocollagen proline hydroxylase (Gallus gallus, UniProt P16924).
T1 construct: partially purified enzyme preparation derived from chick embryos; from tissue; host or cells: chick embryos
T1 sequence (P16924 1-516): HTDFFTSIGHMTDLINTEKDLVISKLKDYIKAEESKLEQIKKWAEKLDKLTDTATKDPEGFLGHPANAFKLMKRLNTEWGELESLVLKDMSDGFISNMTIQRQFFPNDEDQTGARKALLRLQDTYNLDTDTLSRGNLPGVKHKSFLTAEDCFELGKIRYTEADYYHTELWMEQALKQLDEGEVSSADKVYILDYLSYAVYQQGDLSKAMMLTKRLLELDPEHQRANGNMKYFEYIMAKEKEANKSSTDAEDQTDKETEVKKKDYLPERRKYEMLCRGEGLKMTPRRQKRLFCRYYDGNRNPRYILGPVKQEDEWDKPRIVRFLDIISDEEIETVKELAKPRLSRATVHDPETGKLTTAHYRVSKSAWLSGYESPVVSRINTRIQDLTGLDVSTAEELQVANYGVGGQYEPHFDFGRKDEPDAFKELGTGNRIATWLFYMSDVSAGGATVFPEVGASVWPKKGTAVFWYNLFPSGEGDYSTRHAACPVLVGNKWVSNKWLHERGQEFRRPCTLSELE
T1 sequence (P09102 23-515 partner): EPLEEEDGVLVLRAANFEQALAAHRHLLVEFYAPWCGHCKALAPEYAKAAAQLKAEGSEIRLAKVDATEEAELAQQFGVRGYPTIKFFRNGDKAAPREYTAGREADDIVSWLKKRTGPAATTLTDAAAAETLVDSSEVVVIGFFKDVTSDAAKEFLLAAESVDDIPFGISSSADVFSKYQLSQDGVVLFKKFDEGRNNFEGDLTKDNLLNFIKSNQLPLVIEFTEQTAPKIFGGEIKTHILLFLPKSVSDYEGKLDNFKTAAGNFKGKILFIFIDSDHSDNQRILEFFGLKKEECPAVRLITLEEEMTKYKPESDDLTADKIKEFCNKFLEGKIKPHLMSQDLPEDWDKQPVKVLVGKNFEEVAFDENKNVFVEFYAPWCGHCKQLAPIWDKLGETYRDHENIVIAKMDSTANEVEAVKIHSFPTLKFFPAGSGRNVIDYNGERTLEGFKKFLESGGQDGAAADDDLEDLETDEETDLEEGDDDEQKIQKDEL
The experiment in a line: Protocollagen proline hydroxylase-inhibiting activity. It is filed as biochemical. The settings on record: partially purified chick embryo enzyme, 100 μg as protein, substrate (Pro-Pro-Gly)5.4H2O; for inhibition at 20 µM: Concentration 20 μM. The procedure: (1) Protocollagen proline hydroxylase-inhibiting activity
This inhibitory activity was assayed by the procedure of R. E. Rhoads et al. (Methods in Enzymology XVII B, 306 (1971)) using a partially purified enzyme preparation derived from chick embryos in accordance with the methods of K. I. Kivirriko et al. and J. Halme et al. (J. Biol. Chem. 242, 4007 (1967) and Biochem. Biophys. Acta 198, 460 (1967), and, as a substrate, (Pro-Pro-Gly)5.4H2 O (Protein Research Foundation, Osaka). In this assay, the partially purified enzyme preparation was used in the amount of 100 μg as protein. The results are shown in Table 1.

The nature of data set [2]: Toxicity, gastric gavage to rats in a 5-week regimen. It is filed as in vivo. Conditions: 2500 mg/kg/day. The source says:
The compound (I) is very low in toxicity.

Where [3] appears, read: 17β-Estradiol alone, 0.2 mg/kg intraperitoneally once daily for 6 consecutive days.
[4] abbreviates: given with 17β-Estradiol, 0.2 mg/kg of each test compound intraperitoneally once daily for 6 consecutive days.

Turning to `C[C@]12CC[C@@H]3c4ccc(O)cc4CC[C@H]3[C@@H]1CC[C@@H]2O` [17β-Estradiol, reference compound], in the data set on Collagen biosynthesis (setting [3]), the “Collagen content of uterus” value turned out to be 3.45 ± 0.11 and the “Body weight of rats” value came out at 73 ± 3 g. In turn, `COC1=C(OC)C(=O)C(CCCCO)=C(C)C1=O` [A:CH2 n:3 R:H] gave an inhibition at 25 µM in data set [1] (Concentration 25 μM) of 68%. With `COC(=O)CCCCCCCCCC1=C(C)C(=O)C(OC)=C(OC)C1=O` [A:CO n:9 R:CH3], the inhibition at 20 µM in data set [1] is 21%. Same read-out and setting: with `COC1=C(OC)C(=O)C(CCCCCCCCCC(=O)O)=C(C)C1=O` [A:CO n:9 R:H] the figure was 31%; with `COC1=C(OC)C(=O)C(CCCCCCCC(=O)O)=C(C)C1=O` [A:CO n:7 R:H], 35%. For the compound `COC(=O)CCCC1=C(C)C(=O)C(OC)=C(OC)C1=O` [A:CO n:3 R:CH3], at 50 µM the inhibition in data set [1] (Concentration 50 μM) was 47%. Take `COC1=C(OC)C(=O)C(CCCC(=O)O)=C(C)C1=O` [A:CO n:3 R:H]: in data set [1], the inhibition at 20 µM came to 57%.

Compound `COC1=C(OC)C(=O)C(CCCCCCCCCCO)=C(C)C1=O` [A:CH2 n:9 R:H, 2,3-dimethoxy-5-methyl-6-(10'-hydroxydecyl)-1,4-benzoquinone] came in with an inhibition at 20 µM in data set [1] of 37%. In addition, in the data set with Collagen biosynthesis (setting [4]), the “Collagen content of uterus” value is 2.94 ± 0.28 and the “Body weight of rats” value came out at 69 ± 6 g. This compound returned a Degree of inhibition in the data set with Collagen biosynthesis (given with 17β-Estradiol, 0.2 mg/kg of each test compound intraperitoneally once daily for 6 consecutive days, formula in footnote ** (drawing 3)) of 28. Also, the “Abnormalities in body weight, food intake, urinalysis and blood tests” value in data set [2] was “no abnormalities in body weight, food intake, urinalysis and blood tests”.
